Experimental data reported in patent US6465489B1, “Ureidopiperidine derivatives as selective human NK3 receptor antagonists” (Sanofi-Synthelabo, priority 1998, dated 2002).

Tested on: bronchitic and cough response induced by citric acid
Experiment: Bronchitic and cough response induced by citric acid in guinea pigs
Assay type: in vivo, guinea pig
Settings: compared with osanetant
From the text: In guinea pigs, the effect on the bronchitic and cough response induced by citric acid has been studied using the model described by S. Daoui et al., in Am. J. Resp. Crit. Care Med., 1998, 158, 42-48. In this test, the Example 10 compound has shown an activity 10 times greater than that of osanetant.

## CN(C)C(=O)NC1(c2ccccc2)CCN(CCCC2(c3ccc(Cl)c(Cl)c3)CCCN(C(=O)c3ccccc3)C2)CC1 (stereo not shown) [Example 10]
  activity relative to osanetant: 10 times
